# According to ChEMBL document CHEMBL1149488, “Antitumour properties of fluorinated benzothiazole-substituted hydroxycyclohexa-2,5-dienones ('quinols')” (2006):
# Experiments:
# Assay type in all cases: functional
# [1] = target: T1, Thioredoxin reductase (Homo sapiens) (UniProt Q16881+Q9NNW7+Q86VQ6); experiment: Inhibition of human thioredoxin signalling assessed as inhibition of insulin reduction at 25 uM
# [2] = target: T1, Thioredoxin reductase (Homo sapiens); experiment: Inhibition of human thioredoxin signalling assessed as inhibition of insulin reduction at 100 uM
# [3] = tested on: MCF7; experiment: Antitumor activity against human MCF7 cells by MTT assay
# [4] = tested on: MDA-MB-468; experiment: Antitumor activity against human MDA-MB-468 cells by MTT assay
# [5] = tested on: Panel NCI-60 (60 carcinoma cell lines); experiment: Antitumor activity against human NCI60 cells
# [6] = target: T1, Thioredoxin reductase (Homo sapiens); experiment: Inhibition of human thioredoxin signalling assessed as inhibition of insulin reduction at 10 uM
# [7] = target: T1, Thioredoxin reductase (Homo sapiens); experiment: Inhibition of human thioredoxin signalling assessed as inhibition of insulin reduction at 50 uM
# [8] = tested on: HCT-116; experiment: Antitumor activity against human HCT116 cells by MTT assay
# [9] = tested on: HT-29; experiment: Antitumor activity against human HT29 cells by MTT assay
compound,measurement,setting,value
O=C1C=CC(O)(c2nc3ccccc3s2)C=C1,inhibition,[1],35.1%
same,inhibition,[2],95.8%
same,GI50,[3],440 nM
same,GI50,[4],410 nM
same,GI50,[5],230 nM
same,inhibition,[6],13.2%
same,inhibition,[7],94.8%
same,GI50,[8],110 nM
same,GI50,[9],590 nM
